# Target: T1, Menin/Histone-lysine N-methyltransferase MLL (Homo sapiens, UniProt O00255)
# Test: Inhibition of menin (unknown origin)-FITC-tagged MLL1 (unknown origin) protein-protein interaction after 1 hr by fluorescence polarization assay
# T1 sequence (O00255 whole entry): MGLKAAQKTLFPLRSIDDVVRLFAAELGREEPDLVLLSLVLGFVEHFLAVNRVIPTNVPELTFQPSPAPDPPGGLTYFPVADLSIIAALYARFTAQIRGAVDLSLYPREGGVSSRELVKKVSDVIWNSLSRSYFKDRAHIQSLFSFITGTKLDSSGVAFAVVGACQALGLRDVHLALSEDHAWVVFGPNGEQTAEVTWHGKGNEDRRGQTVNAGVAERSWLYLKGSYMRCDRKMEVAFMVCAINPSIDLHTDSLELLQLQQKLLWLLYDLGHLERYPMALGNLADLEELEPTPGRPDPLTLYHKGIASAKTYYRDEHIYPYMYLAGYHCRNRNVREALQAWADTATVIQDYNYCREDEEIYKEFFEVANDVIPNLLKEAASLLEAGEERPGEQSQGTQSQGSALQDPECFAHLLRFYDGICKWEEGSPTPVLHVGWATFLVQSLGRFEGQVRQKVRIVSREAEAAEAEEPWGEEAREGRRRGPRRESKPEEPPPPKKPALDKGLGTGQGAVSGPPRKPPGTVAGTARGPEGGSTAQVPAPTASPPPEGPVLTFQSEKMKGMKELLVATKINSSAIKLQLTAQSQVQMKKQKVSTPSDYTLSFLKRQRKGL
# T1 sequence (Q03164 1-2718 partner limits assumed): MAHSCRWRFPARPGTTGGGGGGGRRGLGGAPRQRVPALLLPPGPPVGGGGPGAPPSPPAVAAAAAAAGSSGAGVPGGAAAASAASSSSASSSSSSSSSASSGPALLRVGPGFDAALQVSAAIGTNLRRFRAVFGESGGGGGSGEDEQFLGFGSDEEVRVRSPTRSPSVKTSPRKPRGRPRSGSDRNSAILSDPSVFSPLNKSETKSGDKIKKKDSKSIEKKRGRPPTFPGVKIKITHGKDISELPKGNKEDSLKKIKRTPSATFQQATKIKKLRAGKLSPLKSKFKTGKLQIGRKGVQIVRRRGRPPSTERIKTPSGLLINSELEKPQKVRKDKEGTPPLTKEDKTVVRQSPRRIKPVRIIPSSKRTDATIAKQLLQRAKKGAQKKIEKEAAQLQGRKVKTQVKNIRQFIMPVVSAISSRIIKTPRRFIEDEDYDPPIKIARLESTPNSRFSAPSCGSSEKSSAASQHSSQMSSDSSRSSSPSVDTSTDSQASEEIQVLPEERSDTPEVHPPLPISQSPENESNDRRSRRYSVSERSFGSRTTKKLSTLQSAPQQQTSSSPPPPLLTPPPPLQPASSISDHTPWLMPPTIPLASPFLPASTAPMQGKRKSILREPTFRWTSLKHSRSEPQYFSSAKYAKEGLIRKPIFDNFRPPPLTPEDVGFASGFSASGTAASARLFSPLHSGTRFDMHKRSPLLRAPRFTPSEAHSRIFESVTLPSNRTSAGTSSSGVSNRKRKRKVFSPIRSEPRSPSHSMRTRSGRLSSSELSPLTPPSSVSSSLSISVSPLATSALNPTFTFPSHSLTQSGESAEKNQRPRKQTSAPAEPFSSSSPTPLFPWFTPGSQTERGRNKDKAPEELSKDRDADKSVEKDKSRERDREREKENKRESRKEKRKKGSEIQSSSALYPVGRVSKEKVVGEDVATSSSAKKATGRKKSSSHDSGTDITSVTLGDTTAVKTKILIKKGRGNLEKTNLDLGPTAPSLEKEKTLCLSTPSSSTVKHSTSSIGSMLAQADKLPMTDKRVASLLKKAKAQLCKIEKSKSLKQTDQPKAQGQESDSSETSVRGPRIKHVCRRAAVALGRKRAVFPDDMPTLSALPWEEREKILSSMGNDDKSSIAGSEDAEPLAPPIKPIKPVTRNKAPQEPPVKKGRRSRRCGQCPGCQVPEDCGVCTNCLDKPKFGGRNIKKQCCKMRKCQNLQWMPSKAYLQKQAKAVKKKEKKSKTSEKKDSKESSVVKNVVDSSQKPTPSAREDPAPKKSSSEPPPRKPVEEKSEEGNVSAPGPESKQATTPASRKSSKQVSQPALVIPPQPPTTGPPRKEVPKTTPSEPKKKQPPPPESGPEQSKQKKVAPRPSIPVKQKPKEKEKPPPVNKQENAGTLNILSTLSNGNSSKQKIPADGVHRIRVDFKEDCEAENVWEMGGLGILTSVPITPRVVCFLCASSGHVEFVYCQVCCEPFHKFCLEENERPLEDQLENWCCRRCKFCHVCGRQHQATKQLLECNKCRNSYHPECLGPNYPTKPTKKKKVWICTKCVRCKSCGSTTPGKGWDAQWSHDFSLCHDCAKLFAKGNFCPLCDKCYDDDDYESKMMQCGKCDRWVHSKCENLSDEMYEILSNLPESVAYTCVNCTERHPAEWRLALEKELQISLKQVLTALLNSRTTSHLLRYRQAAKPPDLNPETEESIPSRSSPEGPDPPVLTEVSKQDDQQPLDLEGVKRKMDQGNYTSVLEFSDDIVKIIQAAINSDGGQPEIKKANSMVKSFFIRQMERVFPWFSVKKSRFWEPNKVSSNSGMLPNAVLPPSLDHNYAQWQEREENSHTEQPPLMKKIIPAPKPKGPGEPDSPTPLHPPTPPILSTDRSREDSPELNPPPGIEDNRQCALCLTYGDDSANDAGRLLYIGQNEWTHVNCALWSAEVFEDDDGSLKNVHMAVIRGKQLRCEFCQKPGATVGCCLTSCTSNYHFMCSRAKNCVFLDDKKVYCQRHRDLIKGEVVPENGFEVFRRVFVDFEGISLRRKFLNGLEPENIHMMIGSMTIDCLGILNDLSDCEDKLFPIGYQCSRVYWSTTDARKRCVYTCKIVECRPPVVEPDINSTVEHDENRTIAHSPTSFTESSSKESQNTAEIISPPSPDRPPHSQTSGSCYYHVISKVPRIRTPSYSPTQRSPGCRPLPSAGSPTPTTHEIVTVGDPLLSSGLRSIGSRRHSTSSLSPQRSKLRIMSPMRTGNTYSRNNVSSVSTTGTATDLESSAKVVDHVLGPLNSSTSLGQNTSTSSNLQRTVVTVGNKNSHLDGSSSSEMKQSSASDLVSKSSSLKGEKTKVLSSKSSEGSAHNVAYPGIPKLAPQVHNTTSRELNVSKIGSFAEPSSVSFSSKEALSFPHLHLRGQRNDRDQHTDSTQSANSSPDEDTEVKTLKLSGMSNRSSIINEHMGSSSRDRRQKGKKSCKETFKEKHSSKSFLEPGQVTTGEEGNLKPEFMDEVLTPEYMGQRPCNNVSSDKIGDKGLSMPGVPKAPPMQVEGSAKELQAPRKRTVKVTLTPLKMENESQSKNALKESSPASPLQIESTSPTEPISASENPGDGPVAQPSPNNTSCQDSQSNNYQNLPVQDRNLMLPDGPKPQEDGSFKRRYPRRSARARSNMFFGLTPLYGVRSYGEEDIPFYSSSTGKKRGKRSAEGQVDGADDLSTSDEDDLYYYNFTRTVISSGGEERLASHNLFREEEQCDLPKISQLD
# T1 sequence (Q03164 2719-3969 partner limits assumed): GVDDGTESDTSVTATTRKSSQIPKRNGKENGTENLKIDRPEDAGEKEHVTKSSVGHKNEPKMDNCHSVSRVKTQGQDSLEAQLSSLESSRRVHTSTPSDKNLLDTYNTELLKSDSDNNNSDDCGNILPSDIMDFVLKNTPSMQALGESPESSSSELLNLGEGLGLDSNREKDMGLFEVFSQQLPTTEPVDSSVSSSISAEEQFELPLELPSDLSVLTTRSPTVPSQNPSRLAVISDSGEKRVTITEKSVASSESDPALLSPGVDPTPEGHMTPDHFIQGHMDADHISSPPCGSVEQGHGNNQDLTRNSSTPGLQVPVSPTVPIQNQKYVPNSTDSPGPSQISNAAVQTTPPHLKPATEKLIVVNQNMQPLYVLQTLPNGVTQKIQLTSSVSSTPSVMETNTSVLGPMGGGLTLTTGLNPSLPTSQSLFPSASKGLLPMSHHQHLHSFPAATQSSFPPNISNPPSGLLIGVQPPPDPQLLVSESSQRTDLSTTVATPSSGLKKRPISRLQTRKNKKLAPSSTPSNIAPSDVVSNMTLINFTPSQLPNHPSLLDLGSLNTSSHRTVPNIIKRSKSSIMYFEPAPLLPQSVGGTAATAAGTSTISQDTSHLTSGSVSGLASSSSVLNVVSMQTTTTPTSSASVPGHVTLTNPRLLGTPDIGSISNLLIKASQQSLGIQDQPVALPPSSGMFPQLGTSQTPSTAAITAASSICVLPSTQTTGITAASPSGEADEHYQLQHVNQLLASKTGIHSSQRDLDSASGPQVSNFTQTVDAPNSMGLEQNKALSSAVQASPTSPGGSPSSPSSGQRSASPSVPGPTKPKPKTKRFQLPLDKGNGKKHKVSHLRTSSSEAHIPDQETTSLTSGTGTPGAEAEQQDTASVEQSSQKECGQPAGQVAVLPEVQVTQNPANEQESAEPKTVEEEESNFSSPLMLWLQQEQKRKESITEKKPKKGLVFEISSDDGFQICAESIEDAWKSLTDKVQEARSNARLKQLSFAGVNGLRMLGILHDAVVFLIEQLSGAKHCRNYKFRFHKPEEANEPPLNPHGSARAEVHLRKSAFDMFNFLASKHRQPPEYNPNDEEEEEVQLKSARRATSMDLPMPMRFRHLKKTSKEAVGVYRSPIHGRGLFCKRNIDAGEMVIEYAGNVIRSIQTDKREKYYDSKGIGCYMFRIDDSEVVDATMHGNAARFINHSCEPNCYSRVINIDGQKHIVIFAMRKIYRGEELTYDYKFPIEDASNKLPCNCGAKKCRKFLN
row,IC50,SMILES
1,46 µM,CCc1cc2c(N3CCN(c4nccs4)CC3)ncnc2s1
2,58 µM,CCc1cc2c(N3CCN(c4ccccn4)CC3)ncnc2s1
3,52 µM,CCc1cc2c(N3CCN(Cc4ccccc4)CC3)ncnc2s1
4,87 µM,CCc1cc2c(N3CCN(c4ncccn4)CC3)ncnc2s1
5,193 µM,CCc1cc2c(N3CCN(c4nncs4)CC3)ncnc2s1
6,0.75 µM,CCCCc1cc2c(N3CCN(C4=NCC(C)(C)S4)CC3)ncnc2s1
7,14 µM,CCc1cc2c(N3CCN(Cc4ccc(Cl)cc4)CC3)ncnc2s1

# Target: T1, Menin/Histone-lysine N-methyltransferase MLL
# Test: Inhibition of full length human menin-MLL1 (4 to 43 residues) (unknown origin) protein-protein interaction after 1 hr by fluorescence polarization assay
row,IC50,SMILES
1,0.765 µM,CC(c1cc2c(N3CCN(C4=NCC(C)(C)S4)CC3)ncnc2s1)C(F)(F)F (stereo not given)

# Target: T1, Menin/Histone-lysine N-methyltransferase MLL
# Test: Inhibition of menin (unknown origin)-fluorescein-labeled MLL1 (unknown origin) after 1 hr by fluorescence polarization assay
# Format: protein assay
row,IC50,SMILES
1,1.4 µM,FC(F)(F)Cc1cc2c(N3CCN(c4nnc(C(F)(F)F)o4)CC3)ncnc2s1
2,20 µM,CSc1cc2c(N3CCN(c4nnc(C(F)(F)F)s4)CC3)ncnc2s1
3,0.65 µM,CCCc1cc2c(N3CCN(c4nnc(C(F)(F)F)s4)CC3)ncnc2s1
4,200 µM,CCCc1cc2c(N3CCN(c4nnc(C(F)(F)F)[nH]4)CC3)ncnc2s1
5,1.3 µM,CCc1cc2c(N3CCN(c4nnc(C(F)(F)F)s4)CC3)ncnc2s1
6,2 µM,FC(F)(F)c1nnc(N2CCN(c3ncnc4sc(C5CC5)cc34)CC2)s1
7,0.193 µM,CC1(C)CN=C(N2CCN(c3ncnc4sc(CCCl)cc34)CC2)S1

# Source: ChEMBL document CHEMBL4261532, “Theoretical models of inhibitory activity for inhibitors of protein-protein interactions: targeting menin-mixed lineage leukemia with small molecules” (Medchemcomm, 2017)
